This note sets out measurements from PubChem BioAssay AID1259408 (Genetic Toxicology Data Bank (GENE-TOX), 2018).

Molecules are shown by their SMILES. Calls of active or inactive are those of the source. No rule for the calls is given here.

The test system of this series is GENE-TOX genotoxicity assays, various organisms and cells. The series is described as follows: GENE-TOX mutagenicity studies. The settings on record: for call: Assay Type: In vivo carcinogenicity studies. An excerpt:
GENE-TOX provides genetic toxicology (mutagenicity) test data from expert peer review of open scientific literature for more than 3,000 chemicals from the United States Environmental Protection Agency (EPA). GENE-TOX was established to select assay systems for evaluation, review data in the scientific literature, and recommend proper testing protocols and evaluation procedures for these systems.
GENE-TOX covers the years 1991 - 1998. It is no longer updated.
This is an archive assay for GENE-TOX mutagenicity studies.

The mark [1] stands for this setting: Species/Cell Type: Escherichia coli polA (W3119 vs P3478), Assay Type: Rec-assay, DNA effects (bacterial DNA repair), Assay Code: RE1T, Evaluation Type: Evaluation A (Pre-1980).
Setting [2] is: Species/Cell Type: Fischer rat embryo (RLV/1706) cells, Assay Type: Cell transformation, viral enhanced, Assay Code: CTR+, Evaluation Type: Evaluation A (Pre-1980).
Where [3] appears, read: Species/Cell Type: Nonhuman, Assay Code: CCG+, Evaluation Type: Evaluation A (Pre-1980).
The mark [4] stands for this setting: Species/Cell Type: Saccharomyces cerevisiae, Assay Type: Mitotic recombination or gene conversion, Assay Code: YEH-, Evaluation Type: Evaluation A (Pre-1980).
[5] abbreviates: Species/Cell Type: Syrian hamster embryo (SHE) cells, Assay Type: Cell transformation, clonal assay, Assay Code: CTC+, Evaluation Type: Evaluation A (Pre-1980).
Setting [6] is: Species/Cell Type: Saccharomyces cerevisiae, Assay Type: Mitotic recombination or gene conversion, Assay Code: YEC+, Evaluation Type: Evaluation A (Pre-1980).
The mark [7] stands for this setting: Species/Cell Type: Saccharomyces cerevisiae, Assay Type: Reverse gene mutation, Assay Code: YER+, Evaluation Type: Evaluation A (Pre-1980).
Setting [8] is: Species/Cell Type: Mammalian polychromatic erythrocytes, Assay Type: Micronucleus test, chromosome aberrations, Assay Code: MNT+U, Dose Response: Unconfirmed positive response, Evaluation Type: Evaluation B (Post-1980).
[9] abbreviates: Species/Cell Type: Mouse, Sex: Male, Assay Type: Sperm morphology, Assay Code: SPI-, Evaluation Type: Evaluation A (Pre-1980).

Regarding `c1ccc2cc3c(ccc4ccccc43)cc2c1`, the mutagenic call reads like this: (Species/Cell Type: Chinese hamster lung (V79) cells, Assay Type: Forward gene mutation at the HPRT or ouabain locus, Assay Code: V79+*, Activation: With metabolic activation, Evaluation Type: Evaluation A (Pre-1980)) “active; positive”; (Species/Cell Type: Drosophila melanogaster, Assay Type: Sex-linked recessive lethal gene mutation, Assay Code: SRLT, Evaluation Type: Evaluation A (Pre-1980)) “no conclusion”; under setting [1], “no conclusion”; under setting [2], “active; positive”; (Species/Cell Type: Human diploid fibroblasts, Assay Type: Unscheduled DNA synthesis (UDS) in vitro, DNA effects, Assay Code: UDHT, Evaluation Type: Evaluation A (Pre-1980)) “no conclusion”; (Species/Cell Type: Mouse (BALB/c-3T3) cells, Assay Type: Cell transformation, Assay Code: CTB-, Evaluation Type: Evaluation A (Pre-1980)) “inactive; negative”. The mutagenic call was “active; positive” (Species/Cell Type: Mouse prostate cells, Assay Type: Cell transformation, Assay Code: CTM+, Evaluation Type: Evaluation A (Pre-1980)); “active; positive” (Species/Cell Type: Nonhuman, Assay Type: Sister-chromatid exchange (SCE) in vitro, Assay Code: SC2+, Evaluation Type: Evaluation B (Post-1980)); “active; positive” (Species/Cell Type: Nonhuman, Assay Type: Sister-chromatid exchange (SCE) in vivo, Assay Code: SC3+, Evaluation Type: Evaluation B (Post-1980)); “no conclusion” (Species/Cell Type: Nonhuman, Assay Type: Sister-chromatid exchange (SCE) in vivo, Assay Code: SC3T, Evaluation Type: Evaluation A (Pre-1980)); “inactive; negative” (Species/Cell Type: Rat primary hepatocytes, Assay Type: Unscheduled DNA synthesis (UDS) in vitro, DNA effects, Assay Code: UDP-, Evaluation Type: Evaluation A (Pre-1980)); “inactive; negative” under setting [4]. The mutagenic call by setting is: (Species/Cell Type: Salmonella typhimurium (one or more of the five standard strains: TA98, TA100, TA1535, TA1537, and TA1538), Assay Type: Histidine reverse gene mutation, Ames assay, Assay Code: SAL+*, Activation: With metabolic activation, Evaluation Type: Evaluation A (Pre-1980)) “active; positive”; (Species/Cell Type: Salmonella typhimurium, Assay Type: Forward and reverse gene mutation, host-mediated assay, Assay Code: HMA+, Evaluation Type: Evaluation A (Pre-1980)) “active; positive”; under setting [5], “active; positive”. The call under setting [3] was “active; positive”.
Take `Cc1ccc2c(c1O)N[C@H](O)[C@@H]1CC(/C=C/C(N)=O)=CN1C2=O`: the mutagenic call was “no conclusion” (Species/Cell Type: Mammalian polychromatic erythrocytes, Assay Type: Micronucleus test, chromosome aberrations, Assay Code: MNTT, Evaluation Type: Evaluation B (Post-1980)); “active; positive” (Species/Cell Type: Nonhuman, Assay Type: Sister-chromatid exchange (SCE) in vitro, Assay Code: SC2+D, Dose Response: With dose response, Evaluation Type: Evaluation B (Post-1980)); “active; positive” under setting [6]; “active; positive” (Species/Cell Type: Saccharomyces cerevisiae, Assay Type: Mitotic recombination or gene conversion, Assay Code: YEH+, Evaluation Type: Evaluation A (Pre-1980)); “active; positive” under setting [7]; “no conclusion” (Species/Cell Type: Salmonella typhimurium (one or more of the five standard strains: TA98, TA100, TA1535, TA1537, and TA1538), Assay Type: Histidine reverse gene mutation, Ames assay, Assay Code: SALT, Evaluation Type: Evaluation A (Pre-1980)).
As for `NC(Cc1c[nH]c2ccccc12)C(=O)O` (centres undefined), the mutagenic call (Species/Cell Type: Human, Sex: Male, Assay Type: Sperm morphology, Assay Code: SPH-, Evaluation Type: Evaluation A (Pre-1980)) is “inactive; negative”.
With `COc1cc(NC(=O)c2ccccc2)c(OC)cc1[N+]#N`, the mutagenic call (Species/Cell Type: Bacillus subtilis (H17 vs M45), Assay Type: Rec-assay, spot test, DNA effects (bacterial DNA repair), Assay Code: REWT, Evaluation Type: Evaluation A (Pre-1980)) was “no conclusion”.
Turning to `O=C1C=C(N2CC2)C(=O)C(N2CC2)=C1N1CC1`, the mutagenic call is, setting by setting: (Species/Cell Type: Drosophila melanogaster, Assay Type: Sex-linked recessive lethal gene mutation, Assay Code: SRL+, Evaluation Type: Evaluation A (Pre-1980)) “active; positive”; (Species/Cell Type: Drosophila melanogaster, Sex: Male, Assay Type: Heritable translocation test, chromosome aberrations, Assay Code: DHT+, Evaluation Type: Evaluation A (Pre-1980)) “active; positive”; (Species/Cell Type: Glycine max (soybean), Assay Type: Gene mutation, Assay Code: GLM+, Evaluation Type: Evaluation A (Pre-1980)) “active; positive”; (Species/Cell Type: Hordeum vulgare (barley), Assay Type: Chromosome aberrations, Assay Code: HOC+D, Dose Response: With dose response, Evaluation Type: Evaluation A (Pre-1980)) “active; positive”; (Species/Cell Type: Human lymphocytes or leukocytes, Assay Type: Chromosome aberrations in vitro, Assay Code: CY7T, Evaluation Type: Evaluation A (Pre-1980)) “no conclusion”; (Species/Cell Type: Human lymphocytes, Assay Type: Sister-chromatid exchange (SCE) in vitro, Assay Code: SCL+D, Dose Response: With dose response, Evaluation Type: Evaluation A (Pre-1980)) “active; positive”. In addition, the mutagenic call is, setting by setting: (Species/Cell Type: Human, Assay Type: Sister-chromatid exchange (SCE) in vitro, Assay Code: SC1+D, Dose Response: With dose response, Evaluation Type: Evaluation A (Pre-1980)) “active; positive”; (Species/Cell Type: Mammalian germ cells, Sex: Male, Assay Type: Chromosome aberrations in vivo, Assay Code: CY9T, Evaluation Type: Evaluation A (Pre-1980)) “no conclusion”; (Species/Cell Type: Mammalian oocytes or early embryo, Assay Type: Chromosome aberrations in vivo, Assay Code: CYO+, Evaluation Type: Evaluation A (Pre-1980)) “active; positive”; (Species/Cell Type: Mammalian polychromatic erythrocytes, Assay Type: Micronucleus test, chromosome aberrations, Assay Code: MNT+, Evaluation Type: Evaluation A (Pre-1980)) “active; positive”; (Species/Cell Type: Neurospora crassa, Assay Type: Forward gene mutation, Assay Code: NEF+, Evaluation Type: Evaluation A (Pre-1980)) “active; positive”; (Species/Cell Type: Nonhuman, Assay Type: Sister-chromatid exchange (SCE) in vitro, Assay Code: SC2+D, Dose Response: With dose response, Evaluation Type: Evaluation A (Pre-1980)) “active; positive”. The mutagenic call was “active; positive” (Species/Cell Type: Nonhuman, Assay Type: Sister-chromatid exchange (SCE) in vivo, Assay Code: SC3+D, Dose Response: With dose response, Evaluation Type: Evaluation A (Pre-1980)); “active; positive” (Species/Cell Type: Rodents, Sex: Female, Assay Type: Dominant lethal test, Assay Code: DLTF+D, Dose Response: With dose response, Evaluation Type: Evaluation A (Pre-1980)); “active; positive” (Species/Cell Type: Rodents, Sex: Male, Assay Type: Dominant lethal test, Assay Code: DLT+D, Dose Response: With dose response, Evaluation Type: Evaluation A (Pre-1980)); “active; positive” under setting [6]; “active; positive” under setting [7]; “active; positive” (Species/Cell Type: Salmonella typhimurium, Escherichia coli, Serratia marcesens, Assay Type: Forward and reverse gene mutation, host-mediated assay, Assay Code: HMN+, Evaluation Type: Evaluation A (Pre-1980)). Further, the call (Species/Cell Type: Nonhuman, Assay Code: CCG+L, Evaluation Type: Evaluation A (Pre-1980)) was “active; positive”.
For the molecule `CCCC(=O)C1c2cccc(O)c2C(=O)c2c(O)cccc21`, under “Species/Cell Type: Mammalian polychromatic erythrocytes, Assay Type: Micronucleus test, chromosome aberrations, Assay Code: MNT-, Evaluation Type: Evaluation B (Post-1980)”, the mutagenic call was “inactive; negative”.
Turning to `O=c1c(O)c(-c2ccccc2)oc2cc(O)cc(O)c12`, the mutagenic call under setting [8] is “active; positive” and the mutagenic call (Species/Cell Type: Nonhuman, Assay Type: Sister-chromatid exchange (SCE) in vitro, Assay Code: SC2+*, Activation: With metabolic activation, Evaluation Type: Evaluation B (Post-1980)) was “active; positive”.
As for `CC(N)=O`, the mutagenic call runs as follows: (Species/Cell Type: Escherichia coli polA (W3110 vs P3478), Assay Type: Rec-assay, DNA effects (bacterial DNA repair), Assay Code: RE2-, Evaluation Type: Evaluation A (Pre-1980)) “inactive; negative”; under setting [1], “no conclusion”; under setting [2], “active; positive”; under setting [8], “active; positive”; (Species/Cell Type: Mouse embryo (AKR/ME) cells, Assay Type: Cell transformation, Assay Code: CTK+, Evaluation Type: Evaluation A (Pre-1980)) “active; positive”; under setting [9], “inactive; negative”. Further, the mutagenic call under setting [4] was “inactive; negative”; the mutagenic call (Species/Cell Type: Salmonella typhimurium (one or more of the five standard strains: TA98, TA100, TA1535, TA1537, and TA1538), Assay Type: Histidine reverse gene mutation, Ames assay, Assay Code: SAL-, Evaluation Type: Evaluation A (Pre-1980)) was “inactive; negative”; the mutagenic call (Species/Cell Type: Salmonella typhimurium, Assay Type: Forward and reverse gene mutation, host-mediated assay, Assay Code: HMA-, Evaluation Type: Evaluation A (Pre-1980)) is “inactive; negative”; the mutagenic call under setting [5] was “active; positive”. For the same molecule, under setting [3], the call was “active; positive”.
For the molecule `CNC[C@H](O)c1ccc(O)c(O)c1`, the mutagenic call is “no conclusion” (Species/Cell Type: Mammalian polychromatic erythrocytes, Assay Type: Micronucleus test, chromosome aberrations, Assay Code: MNTT, Evaluation Type: Evaluation A (Pre-1980)) and “inactive; negative” under setting [9].
